The text below walks through data of patent publication US7537765B2, “Inhibition of HIV-1 replication by disruption of the processing of the viral capsid-spacer peptide 1 protein” (priority 2003, dated 2009).

Assay [1] concerns HIV-1 infected MAGI cells. The class given is cell-based. The text has this: To distinguish the inhibitory activity of DSB against early and late replication targets, a multinuclear activation of a galactosidase indicator (MAGI) assay was used. In this assay, the targets are HeLa cells stably expressing CD4, CXCR4, CCR5 and a reporter construct consisting of the—galactosidase gene (modified to localize to the nucleus) driven by a truncated HIV-1 LTR. Infection of these cells results in expression of Tat that drives activation of the β-galactosidase reporter gene. Expression of β-galactosidase in infected cells is detected using the chromogenic substrate X-gal.

Assay [2] deals with NNRTI-resistant HIV-1 isolates. The assay is described as follows: NNRTI-resistant HIV-1 isolates in MT-2 cells, cell viability (XTT) endpoint. The format is cell-based. Conditions: for IC50: X4, MT-2 cells. As for the experimental part:
(§1) The activity of DSB was tested against a panel of HIV-1 isolates resistant to approved drugs. These viruses were obtained from the NIH AIDS Research and Reference Reagent Program. Assays were performed using virus propagated in PBMCs with a p24 endpoint (above), or using cell line targets (MT-2 cells) and a cell killing endpoint. The MT-2 assay format was as follows. Serial dilutions of DSB, or each approved drug, were prepared in 96 well plates. To each sample well was added media containing MT-2 cells at 3×10^5 cells/mL and virus inoculum at a concentration necessary to result in 80% killing of the cell targets at 5 days post-infection (PI). On day 5 post-infection, virus-induced cell killing was determined by the XTT method and the inhibitory activity of the compound was determined.

Assay [3] has as its system drug resistant HIV-1 isolates. The assay is described as follows: Drug resistant HIV-1 isolates in fresh PBMC, p24 endpoint. The class given is cell-based. The following applies: for IC50: Human immunodeficiency virus 1, PBMC. As for the experimental part:
(§2) A robust virus inhibition assay was used to evaluate the anti-viral activity of DSB against primary HIV-1 isolates propagated in PMBC. Briefly, serial dilutions of DSB were made in medium into 96-well tissue culture plates. 25-250 TCID50 of virus and 5×10^5 PHA-stimulated PBMCs were added to each well. On days 1, 3 and 5 post-infection, media was removed from each well and replaced with fresh media containing DSB at the appropriate concentration.
as §1

In assay [4] the test system is HIV-1 replication in H9 lymphocyte cells. Conditions: cited from earlier work.
For assay [5], the system named is primary Clade B HIV-1 isolates. The assay is described as follows: Virus inhibition assay, primary HIV-1 isolates in PBMC, p24 endpoint. The class given is cell-based. Conditions: Human immunodeficiency virus 1, PBMC. On the procedure: as §2, with “concentration. On day 7 post-infection, culture supernatant was removed from each well for p24 detection of virus replication and 50% inhibitory concentrations (IC50) were calculated by standard methods.” for “concentration.”

The mark [6] stands for this setting: Human immunodeficiency virus 1, MT2, isolate 3, NNRTI-resistant, Y181C.
[7] abbreviates: Human immunodeficiency virus 1, MT2, isolate 4, NNRTI-resistant, K103N Y181C.
The mark [8] stands for this setting: isolate 1, NRTI-resistant, K70R T215Y/F, R5/X4.
Where [9] appears, read: isolate 2, NRTI-resistant, K70R T215Y/F, R5/X4.
[10] abbreviates: isolate 5, Protease-resistant, V82A, X4.
[11] abbreviates: isolate 6, Protease-resistant, I84V, X4.
Setting [12] is: isolate 7, Protease-resistant, L10R/M46I/L63P/V82T/I84V, X4.
Setting [13] is: H9 lymphocyte cells, read-out: EC50, inhibitory activity against HIV-1 replication.
[14] abbreviates: 168 h, isolate 92HT599, co-receptor X4, PBMC, p24 day 7, read-out: IC50.
Setting [15] is: 168 h, isolate 92US723, co-receptor R5/X4, PBMC, p24 day 7, read-out: IC50.
The mark [16] stands for this setting: 168 h, isolate 3401N*, co-receptor R5/X4, PBMC, p24 day 7, read-out: IC50.
The mark [17] stands for this setting: 168 h, isolate 19101N*, co-receptor R5, PBMC, p24 day 7, read-out: IC50.
Where [18] appears, read: 168 h, isolate 22101N*, co-receptor R5/X4, PBMC, p24 day 7, read-out: IC50.
Where [19] appears, read: 168 h, isolate BZ167, co-receptor X4, PBMC, p24 day 7, read-out: IC50.
Where [20] appears, read: 168 h, isolate US1, co-receptor R5, PBMC, p24 day 7, read-out: IC50.
[21] abbreviates: mean over the panel of primary isolates, read-out: IC50, Mean.

Like-named read-outs stand apart in the source and are kept apart here.

Usually IC50 stands for the midpoint of a concentration-inhibition curve. In the case of `CC(C)(C)NC(=O)[C@@H]1CN(Cc2cccnc2)CCN1C[C@@H](O)C[C@@H](Cc1ccccc1)C(=O)N[C@H]1c2ccccc2C[C@H]1O` [Indinavir, indinavir], the “% Decrease (β-galactosidase expression)” value in assay [1] came to 10%. The IC50 was determined as 2.5 nM in assay [2] (setting [6]); 4.5 nM in assay [2] (setting [7]); 9.8 nM in assay [3] (setting [8]); 6.1 nM in assay [3] (setting [9]); 39.7 nM in assay [3] (setting [10]); 32.7 nM in assay [3] (setting [11]). In assay [3] (setting [12]), the IC50 is 72.5 nM.
By EC50 is commonly meant the concentration at which the effect is half-maximal. In the case of `C=C(C)[C@@H]1CC[C@]2(C(=O)O)CC[C@]3(C)[C@H](CC[C@@H]4[C@@]5(C)CC[C@H](O)C(C)(C)[C@@H]5CC[C@]43C)[C@@H]12` [Betulinic acid], the EC50 in assay [4] (setting [13]) was 1400 nM.
Turning to `Cc1ccnc2c1NC(=O)c1cccnc1N2C1CC1` [Nevirapine, nevirapine], in assay [1] (HIV-1 infected MAGI cells), the “% Decrease (β-galactosidase expression)” value was 85%. For the same compound, the IC50 in assay [5] (setting [14]) is 25.3 nM; in assay [5] (setting [15]), 26.8 nM; in assay [5] (setting [16]) it was 32.1 nM; in assay [5] (setting [17]), 59.4 nM; in assay [5] (setting [18]) it was 4.9 nM; in assay [5] (setting [19]) it was 31.2 nM. In addition, the IC50 in assay [5] (setting [20]) is 22.1 nM; in assay [5] (setting [21]) it was 28.8 nM; in assay [2] (setting [6]), over 3800 nM; in assay [2] (setting [7]), 2630 nM. In addition, the “Fold Resistance” value was “(>177X)” in assay [2] (isolate 3, NNRTI-resistant) and “(122X)” in assay [2] (isolate 4, NNRTI-resistant).
As for `CC(C)[C@@H]1CC[C@]2(C(=O)O)CC[C@]3(C)C(CCC4[C@@]5(C)CC[C@H](O)C(C)(C)C5CC[C@]43C)C12` (stereo partly drawn) [dihydrobetulinic acid], the EC50 in assay [4] (unit inferred, read-out: EC50, anti-HIV activity) was 900 nM.
As for `Cc1cn([C@H]2C[C@H](N=[N+]=[N-])[C@@H](CO)O2)c(=O)[nH]c1=O` [AZT, zidovudine], in assay [1] (HIV-1 infected MAGI cells), the “% Decrease (β-galactosidase expression)” value came out at 82%. The IC50 in assay [5] (setting [14]) worked out at 5.8 nM; in assay [5] (setting [15]), 1.2 nM; in assay [5] (setting [16]) it was 17.5 nM; in assay [5] (setting [17]) it was 2.4 nM; in assay [5] (setting [18]) it was 0.9 nM; in assay [5] (setting [19]), 2.2 nM. Also, the IC50 in assay [5] (setting [20]) amounted to 0.9 nM; in assay [5] (setting [21]), 4.4 nM; in assay [2] (setting [6]), 5.1 nM; in assay [2] (setting [7]), 2 nM; in assay [3] (setting [8]), 86.4 nM; in assay [3] (setting [9]) it was 63.4 nM. The results for the IC50 in assay [3] (setting [10]), in assay [3] (setting [11]) and in assay [3] (setting [12]) were 13.1 nM, 14.4 nM and 3.5 nM, respectively. Also, the “Fold Resistance” value in assay [3] (isolate 1, NRTI-resistant) turned out to be 54 X; in assay [3] (isolate 2, NRTI-resistant) it was 40 X.
Turning to `CC(=O)[C@@H]1CC[C@]2(C(=O)O)CC[C@]3(C)[C@H](CC[C@@H]4[C@@]5(C)CC[C@H](O)C(C)(C)[C@@H]5CC[C@]43C)[C@@H]12` [platanic acid], the EC50 in assay [4] (setting [13]) was 6500 nM.
